According to ChEMBL document CHEMBL1240344, “Phage-encoded combinatorial chemical libraries based on bicyclic peptides” (Nat Chem Biol, 2009):
Active and inactive are the calls of the source. No cut-off for these calls is given here. Starred links: 1 amine or outer side, 2 acyl side, 3 side chain; linkers in the order of their positions; H or OH if unused. Positions of bridges follow the written chain, without caps; N, C: chain ends. Residues, ends and D or L forms follow the SMILES beside them. TBMB = c1c(C[*:1])cc(C[*:3])cc1C[*:2]

How the values were obtained:
Plasma kallikrein = Plasma kallikrein (Homo sapiens, UniProt P03952); experiment: Inhibition of human plasma kallikrein using Z-Phe-Arg-AMC substrate after 30 mins by spectrophotometric assay
[1] = target: Prothrombin (Homo sapiens) (UniProt P00734); experiment: Inhibition of human thrombin at 10 uM using Boc-Phe-Ser-Arg-AMC substrate after 30 mins by spectrophotometric assay
[2] = target: Plasma kallikrein (Mus musculus) (UniProt P26262); experiment: Inhibition of mouse plasma kallikrein at 10 uM using Z-Phe-Arg-AMC substrate after 30 mins by spectrophotometric assay; type: cell-free
[3] = target: Coagulation factor XI (Homo sapiens) (UniProt P03951); experiment: Inhibition of human factor 11a at 10 uM using Z-Phe-Arg-AMC substrate after 30 mins by spectrophotometric assay
Sequence of Coagulation factor XI (Homo sapiens) (P03951 19-387 limits assumed): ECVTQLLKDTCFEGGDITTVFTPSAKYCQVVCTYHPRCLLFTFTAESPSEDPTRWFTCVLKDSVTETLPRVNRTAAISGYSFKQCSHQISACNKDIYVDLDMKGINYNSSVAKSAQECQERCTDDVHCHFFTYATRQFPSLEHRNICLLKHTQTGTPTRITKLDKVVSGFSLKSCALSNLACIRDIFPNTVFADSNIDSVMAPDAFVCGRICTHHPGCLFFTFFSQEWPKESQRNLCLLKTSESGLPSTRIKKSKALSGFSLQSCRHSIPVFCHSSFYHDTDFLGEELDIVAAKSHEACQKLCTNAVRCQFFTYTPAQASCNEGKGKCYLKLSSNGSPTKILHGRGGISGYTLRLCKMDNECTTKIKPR
Sequence of Coagulation factor XI (Homo sapiens) (P03951 388-625 limits assumed): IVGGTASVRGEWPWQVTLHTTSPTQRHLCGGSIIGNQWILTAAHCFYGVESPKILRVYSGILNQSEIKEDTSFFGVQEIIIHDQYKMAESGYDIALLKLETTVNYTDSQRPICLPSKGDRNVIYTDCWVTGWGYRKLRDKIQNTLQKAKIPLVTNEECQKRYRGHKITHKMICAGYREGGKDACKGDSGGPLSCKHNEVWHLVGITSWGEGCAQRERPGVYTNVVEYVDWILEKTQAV

Sequence of Plasma kallikrein (P03952 20-390 limits assumed): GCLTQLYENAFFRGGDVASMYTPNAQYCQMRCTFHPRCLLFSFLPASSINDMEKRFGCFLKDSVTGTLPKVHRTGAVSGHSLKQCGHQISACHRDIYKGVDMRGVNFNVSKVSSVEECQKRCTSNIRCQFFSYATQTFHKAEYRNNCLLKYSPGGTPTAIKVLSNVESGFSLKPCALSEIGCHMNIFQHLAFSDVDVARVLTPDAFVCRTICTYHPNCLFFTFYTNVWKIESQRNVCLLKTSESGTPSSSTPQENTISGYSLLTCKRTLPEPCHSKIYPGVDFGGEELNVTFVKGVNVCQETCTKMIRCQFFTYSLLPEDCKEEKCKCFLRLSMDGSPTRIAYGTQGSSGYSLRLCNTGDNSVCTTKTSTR
Sequence of Plasma kallikrein (P03952 391-638 limits assumed): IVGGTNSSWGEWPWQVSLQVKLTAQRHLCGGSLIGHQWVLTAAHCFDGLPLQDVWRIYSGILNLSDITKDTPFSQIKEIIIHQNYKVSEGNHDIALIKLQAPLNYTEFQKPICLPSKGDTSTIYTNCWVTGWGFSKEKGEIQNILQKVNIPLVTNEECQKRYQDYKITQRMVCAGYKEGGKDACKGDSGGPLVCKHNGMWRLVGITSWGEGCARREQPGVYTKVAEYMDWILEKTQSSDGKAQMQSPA
Sequence of Plasma kallikrein (Mus musculus) (P26262 20-390 limits assumed): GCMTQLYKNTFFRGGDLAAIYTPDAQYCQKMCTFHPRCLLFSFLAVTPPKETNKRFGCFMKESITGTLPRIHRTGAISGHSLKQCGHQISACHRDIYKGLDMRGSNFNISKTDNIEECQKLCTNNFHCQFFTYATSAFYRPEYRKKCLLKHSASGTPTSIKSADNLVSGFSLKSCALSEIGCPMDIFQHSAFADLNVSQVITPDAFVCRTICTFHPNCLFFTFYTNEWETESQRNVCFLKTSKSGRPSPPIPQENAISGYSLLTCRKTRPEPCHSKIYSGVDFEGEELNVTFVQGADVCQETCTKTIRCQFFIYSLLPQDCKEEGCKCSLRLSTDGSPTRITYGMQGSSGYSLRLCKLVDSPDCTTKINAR
Sequence of Plasma kallikrein (Mus musculus) (P26262 391-638 limits assumed): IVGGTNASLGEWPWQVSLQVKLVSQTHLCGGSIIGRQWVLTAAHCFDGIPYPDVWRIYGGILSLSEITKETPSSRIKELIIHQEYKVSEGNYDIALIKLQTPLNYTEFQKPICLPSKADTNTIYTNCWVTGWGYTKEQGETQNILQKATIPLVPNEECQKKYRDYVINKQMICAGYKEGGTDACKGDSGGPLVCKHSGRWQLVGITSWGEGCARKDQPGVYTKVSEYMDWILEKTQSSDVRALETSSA

Row | SMILES | IC50 (Plasma kallikrein) [µM] | inhibition [1] | inhibition [2] | inhibition [3]
1 | CC[C@H](C)[C@@H]1NC(=O)[C@H](CCC(=O)O)NC(=O)[C@H]([C@@H](C)CC)NC(=O)[C@@H]2CCCN2C(=O)[C@@H]2CSCc3cc(cc(c3)CSC[C@@H](C(=O)NCC(N)=O)NC(=O)[C@@H]3CCCN3C(=O)[C@H](Cc3ccccc3)NC1=O)CSC[C@H](NC(=O)[C@H](C)N)C(=O)N[C@@H](CO)C(=O)N[C@@H]([C@H](C)O)C(=O)N[C@@H](CCC(=O)O)C(=O)N[C@@H](CCCNC(=N)N)C(=O)N[C@@H](CCCNC(=N)N)C(=O)N[C@@H](Cc1ccc(O)cc1)C(=O)N2 | 0.033 | – | – | –
2 | CC(C)[C@H](NC(=O)[C@H](CCCN=C(N)N)NC(=O)[C@H](CS)NC(=O)[C@H](CCCN=C(N)N)NC(=O)CNC(=O)[C@H](CCC(=O)O)NC(=O)CNC(=O)[C@@H](NC(=O)CNC(=O)[C@H](CS)NC(=O)[C@H](C)N)[C@@H](C)O)C(=O)N[C@@H](CC(N)=O)C(=O)N[C@@H](Cc1c[nH]c2ccccc12)C(=O)N[C@H](C(=O)N1CCC[C@H]1C(=O)N[C@@H](CS)C(=O)NCC(N)=O)[C@@H](C)O | > 10 | – | – | –
3 | CC(C)[C@@H]1NC(=O)[C@H](CCCNC(=N)N)NC(=O)[C@@H]2CSCc3cc(cc(c3)CSC[C@@H](C(=O)NCC(N)=O)NC(=O)[C@@H]3CCCN3C(=O)[C@H]([C@H](C)O)NC(=O)[C@H](Cc3c[nH]c4ccccc34)NC(=O)[C@H](CC(N)=O)NC1=O)CSC[C@H](NC(=O)[C@H](C)N)C(=O)NCC(=O)N[C@@H]([C@H](C)O)C(=O)NCC(=O)N[C@@H](CCC(=O)O)C(=O)NCC(=O)N[C@@H](CCCNC(=N)N)C(=O)N2 | 0.0391 | – | – | –
4 | CC(C)[C@H](NC(=O)[C@H](CCCNC(=N)N)NC(=O)[C@H](CS)NC(=O)[C@H](CCCNC(=N)N)NC(=O)CNC(=O)[C@H](CCC(=O)O)NC(=O)CNC(=O)[C@@H](NC(=O)CNC(=O)[C@H](CS)NC(=O)[C@@H](C)N)[C@H](C)O)C(=O)N[C@@H](CC(N)=O)C(=O)N[C@@H](Cc1c[nH]c2ccccc12)C(=O)N[C@H](C(=O)N1CCC[C@H]1C(=O)N[C@@H](CS)C(=O)NCC(N)=O)[C@@H](C)O | – | inactive | inactive | inactive
5 | CSCC[C@H](NC(=O)[C@H](CC(C)C)NC(=O)[C@H](CC(=O)O)NC(=O)[C@H](CCC(=O)O)NC(=O)[C@H](Cc1ccc(O)cc1)NC(=O)[C@H](CS)NC(=O)[C@H](C)NC(=O)[C@@H](NC(=O)[C@H](CCCN=C(N)N)NC(=O)[C@H](Cc1c[nH]c2ccccc12)NC(=O)[C@@H]1CCCN1C(=O)[C@H](C)NC(=O)[C@H](CS)NC(=O)[C@H](C)N)[C@@H](C)O)C(=O)N[C@@H](Cc1c[nH]c2ccccc12)C(=O)N[C@@H](CS)C(=O)NCC(N)=O (H-ACAPWRTACYEDLMWCG-NH2) | 5.71 | – | – | –
6 | CSCC[C@H](NC(=O)[C@H](CC(C)C)NC(=O)[C@H](CC(=O)O)NC(=O)[C@H](CCC(=O)O)NC(=O)[C@H](Cc1ccc(O)cc1)NC(=O)[C@H](CS)NC(=O)[C@H](C)NC(=O)[C@@H](NC(=O)[C@H](CCCNC(=N)N)NC(=O)[C@H](Cc1c[nH]c2ccccc12)NC(=O)[C@@H]1CCCN1C(=O)[C@H](C)NC(=O)[C@H](CS)NC(=O)[C@H](C)N)[C@@H](C)O)C(=O)N[C@@H](Cc1c[nH]c2ccccc12)C(=O)N[C@@H](CS)C(=O)NCC(N)=O (H-ACAPWRTACYEDLMWCG-NH2) | – | inactive | inactive | inactive
7 | CSCC[C@@H]1NC(=O)[C@H](CO)NC(=O)[C@H](Cc2c[nH]c3ccccc23)NC(=O)[C@@H]2CCCN2C(=O)[C@@H]2CSCc3cc(cc(c3)CSC[C@H](NC(=O)[C@H](C)N)C(=O)N[C@@H](CC(=O)O)C(=O)N[C@@H](CO)C(=O)N[C@@H](CCCNC(=N)N)C(=O)N[C@@H](Cc3ccccc3)C(=O)N[C@@H](CCCNC(=N)N)C(=O)N[C@@H](CC(N)=O)C(=O)N2)CSC[C@@H](C(=O)NCC(N)=O)NC(=O)CNC(=O)[C@H](CO)NC1=O (H-ACDSRFRNCPWSMSGCG-NH2; linker 2-9-16 via TBMB) | 1.5 | – | – | –
8 | CC[C@H](C)[C@@H]1NC(=O)[C@H](CC(N)=O)NC(=O)[C@H](CC(N)=O)NC(=O)[C@H](C(C)C)NC(=O)[C@H](CCCNC(=N)N)NC(=O)[C@@H]2CSCc3cc(cc(c3)CSC[C@@H](C(=O)NCC(N)=O)NC(=O)[C@H](CO)NC1=O)CSC[C@H](NC(=O)[C@H](C)N)C(=O)NCC(=O)NCC(=O)N[C@@H](CC(N)=O)C(=O)N[C@@H](CO)C(=O)N[C@@H](CC(=O)O)C(=O)N[C@@H](CCCNC(=N)N)C(=O)N2 (H-ACGGNSDRCRVNNISCG-NH2; linker 2-9-16 via TBMB) | 2 | – | – | –
9 | CC(C)C[C@H](NC(=O)[C@H](C)NC(=O)[C@H](CCC(=O)O)NC(=O)[C@H](CC(=O)O)NC(=O)[C@H](C)NC(=O)[C@@H]1CCCN1C(=O)[C@H](CS)NC(=O)[C@H](CC(N)=O)NC(=O)[C@H](CCCNC(=N)N)NC(=O)[C@H](Cc1ccccc1)NC(=O)[C@H](CCCNC(=N)N)NC(=O)[C@H](CC(=O)O)NC(=O)[C@H](CO)NC(=O)[C@H](CS)NC(=O)[C@H](C)N)C(=O)N[C@@H](CS)C(=O)NCC(N)=O (H-ACSDRFRNCPADEALCG-NH2) | > 10 | inactive | inactive | inactive
10 | CC(C)C[C@H](NC(=O)[C@@H]1CCCN1C(=O)[C@H](CS)NC(=O)[C@H](CC(N)=O)NC(=O)[C@H](CCCNC(=N)N)NC(=O)[C@H](Cc1ccccc1)NC(=O)[C@H](CCCNC(=N)N)NC(=O)[C@H](CC(=O)O)NC(=O)[C@H](CO)NC(=O)[C@H](CS)NC(=O)[C@H](C)N)C(=O)N[C@@H](Cc1c[nH]c2ccccc12)C(=O)N[C@@H](CO)C(=O)NCC(=O)N[C@H](C(=O)N[C@@H](CS)C(=O)NCC(N)=O)[C@@H](C)O (H-ACSDRFRNCPLWSGTCG-NH2) | > 10 | inactive | inactive | inactive
11 | CC(C)C[C@@H]1NC(=O)[C@H](C)NC(=O)[C@H](CCC(=O)O)NC(=O)[C@H](CC(=O)O)NC(=O)[C@H](C(C)C)NC(=O)[C@@H]2CCCN2C(=O)[C@@H]2CSCc3cc(cc(c3)CSC[C@@H](C(=O)NCC(N)=O)NC1=O)CSC[C@H](NC(=O)[C@H](C)N)C(=O)N[C@@H](CO)C(=O)N[C@@H](CC(=O)O)C(=O)N[C@@H](CCCNC(=N)N)C(=O)N[C@@H](Cc1ccccc1)C(=O)N[C@@H](CCCNC(=N)N)C(=O)N[C@@H](CC(N)=O)C(=O)N2 (H-ACSDRFRNCPVDEALCG-NH2; linker 2-9-16 via TBMB) | 0.02 | – | – | –
12 | CC(C)C[C@@H]1NC(=O)[C@H](Cc2c[nH]c3ccccc23)NC(=O)[C@H](CCC(=O)O)NC(=O)[C@H](CC(=O)O)NC(=O)[C@H](C(C)C)NC(=O)[C@@H]2CCCN2C(=O)[C@@H]2CSCc3cc(cc(c3)CSC[C@@H](C(=O)NCC(N)=O)NC1=O)CSC[C@H](NC(=O)[C@H](C)N)C(=O)N[C@@H](CO)C(=O)N[C@@H](CC(=O)O)C(=O)N[C@@H](CCCNC(=N)N)C(=O)N[C@@H](Cc1ccccc1)C(=O)N[C@@H](CCCNC(=N)N)C(=O)N[C@@H](CC(N)=O)C(=O)N2 (H-ACSDRFRNCPVDEWLCG-NH2; linker 2-9-16 via TBMB) | 0.03 | – | – | –
13 | CC(C)[C@@H]1NC(=O)[C@@H]2CCCN2C(=O)[C@@H]2CSCc3cc(cc(c3)CSC[C@@H](C(=O)NCC(N)=O)NC(=O)[C@H](C)NC(=O)[C@H](CO)NC(=O)[C@H](CCC(=O)O)NC(=O)[C@H](CO)NC1=O)CSC[C@H](NC(=O)[C@H](C)N)C(=O)N[C@@H](CO)C(=O)N[C@@H](CC(=O)O)C(=O)N[C@@H](CCCNC(=N)N)C(=O)N[C@@H](Cc1ccccc1)C(=O)N[C@@H](CCCNC(=N)N)C(=O)N[C@@H](CC(N)=O)C(=O)N2 (H-ACSDRFRNCPVSESACG-NH2; linker 2-9-16 via TBMB) | 0.05 | – | – | –
14 | CC(C)C[C@@H]1NC(=O)[C@H]([C@@H](C)O)NC(=O)[C@H](Cc2ccc(O)cc2)NC(=O)[C@@H]2CCCN2C(=O)[C@@H]2CSCc3cc(cc(c3)CSC[C@@H](C(=O)NCC(N)=O)NC(=O)[C@H](CC(=O)O)NC(=O)[C@H](Cc3cnc[nH]3)NC1=O)CSC[C@H](NC(=O)[C@H](C)N)C(=O)N[C@@H](CO)C(=O)N[C@@H](CC(=O)O)C(=O)N[C@@H](CCCNC(=N)N)C(=O)N[C@@H](Cc1ccccc1)C(=O)N[C@@H](CCCNC(=N)N)C(=O)N[C@@H](CC(N)=O)C(=O)N2 (H-ACSDRFRNCPYTLHDCG-NH2; linker 2-9-16 via TBMB) | 0.03 | – | – | –
15 | CC(C)[C@@H]1NC(=O)[C@H](CCCNC(=N)N)NC(=O)[C@@H]2CSCc3cc(cc(c3)CSC[C@@H](C(=O)NCC(N)=O)NC(=O)[C@H](CCCCN)NC(=O)CNC(=O)[C@H](Cc3ccccc3)NC(=O)[C@H](CC(N)=O)NC1=O)CSC[C@H](NC(=O)[C@H](C)N)C(=O)N[C@@H](Cc1c[nH]c3ccccc13)C(=O)N[C@@H](CCC(N)=O)C(=O)N[C@@H](C(C)C)C(=O)N[C@@H](CCC(N)=O)C(=O)N[C@@H](C(C)C)C(=O)N[C@@H](CC(N)=O)C(=O)N2 (H-ACWQVQVNCRVNFGKCG-NH2; linker 2-9-16 via TBMB) | 0.8 | – | – | –
16 | CC(C)C[C@@H]1NC(=O)[C@@H]2CCCN2C(=O)[C@@H]2CSCc3cc(cc(c3)CSC[C@@H](C(=O)NCC(N)=O)NC(=O)[C@H](C(C)O)NC(=O)CNC(=O)[C@H](CO)NC(=O)[C@H](Cc3c[nH]c4ccccc34)NC1=O)CSC[C@H](NC(=O)[C@H](C)N)C(=O)N[C@@H](CO)C(=O)N[C@@H](CC(=O)O)C(=O)N[C@@H](CCCNC(=N)N)C(=O)N[C@@H](Cc1ccccc1)C(=O)N[C@@H](CCCNC(=N)N)C(=O)N[C@@H](CC(N)=O)C(=O)N2 (single isomer, unassigned) | 0.0286 | – | – | –
17 | CC(C)[C@@H]1NC(=O)[C@@H](NC(=O)[C@H](C)N)CSCc2cc3cc(c2)CSC[C@@H](C(=O)NCC(N)=O)NC(=O)[C@H](C(C)O)NC(=O)[C@H](C(C)C)NC(=O)[C@H](Cc2c[nH]c4ccccc24)NC(=O)[C@H](CC(N)=O)NC(=O)[C@H](C(C)C)NC(=O)[C@H](CCCNC(=N)N)NC(=O)[C@H](CSC3)NC(=O)[C@H](Cc2ccc(O)cc2)NC(=O)[C@H](CC(N)=O)NC(=O)[C@H](Cc2cnc[nH]2)NC1=O (single isomer, unassigned) | 1.8 | – | – | –
